Assay results reported in patent publication US10149890B2 (priority 2010, dated 2018).
Values joined by “and” are separate entries in the source; they are usually repeats but may differ in a detail not shown here. Equal values may be shown once.

Legend:
[1] = test system: influenza virus strain A/FPV/Rostock/34; parameters: species or system chickens; details: in vivo
[2] = test system: human immunodeficiency virus HIV-1 (LAI); assay type: cell-based; details: 0.01 mg/ml
[3] = test system: human immunodeficiency virus HIV-1 (LAI); assay type: cell-based
[4] = test system: clinical isolates of MRSA and MSSA, Staphylococcus aureus ATCC 43300 and ATCC 29213; assay type: cell-based; details: for MIC of the antibiotic alone: before combination with FS-1

CC(N)C12CC3CC(CC(C3)C1)C2 (stereo not shown) [Rimantadine]
Number of chickens that died [1]: 10 and 8 | Number of survived chickens [1]: 4 and 6 | Survival % [1]: 28.6 ± 12.53% and 42.9 ± 13.73%

Cc1cn([C@H]2C[C@H](N=[N+]=[N-])[C@@H](CO)O2)c(=O)[nH]c1=O [azidothymidine]
Decrease of reverse transcriptase content compared with negative control [2]: 5 times | Extinction factor (reverse transcriptase) [2]: 0.5724 ± 0.005464 | Extinction factor (p24) ([3]; 0.01 mg/ml): 0.0446 ± 0.003187 | Decrease of p24 protein compared to placebo ([3]; FS-1 0.188 and 0.094 mg/ml, azidothymidine 0.01 mg/ml): 60 times

Cn1nnnc1SCC1=C(C(=O)O)N2C(=O)[C@@H](NC(=O)[C@H](O)c3ccccc3)[C@H]2SC1 [cefamandole]
MIC of the antibiotic in combination with FS-1 [4]: 8 µg/mL | MIC of the antibiotic alone [4]: 64 µg/mL

Cc1onc(-c2ccccc2)c1C(=O)N[C@@H]1C(=O)N2[C@@H]1SC(C)(C)[C@@H]2C(=O)O [oxacillin]
MIC of the antibiotic in combination with FS-1 [4]: 64 µg/mL | MIC of the antibiotic alone [4]: 256 µg/mL

CCC[C@@H]1C[C@@H](C(=O)N[C@@H]([C@H]2O[C@H](SC)[C@H](O)[C@@H](O)[C@H]2O)[C@@H](C)O)N(C)C1 [lincomycin]
MIC of the antibiotic in combination with FS-1 [4]: 8 µg/mL | MIC of the antibiotic alone [4]: 64 µg/mL
